Source: patent US9675590B2, “Methods and pharmaceutical compositions for the treatment of myelodysplastic syndromes” (INSERM (INSTITUT NATIONAL DE LA SANTÉ ET DE LA RECHERCHE …, priority 2014, dated 2017)
Like-named read-outs stand apart in the source and are kept apart here.

What was measured:
[1] = test system: CD36+ erythroid progenitors from cord blood; experiment: Toxicity of KPT on CD36+ erythroid progenitors with normal EPO; format: cell-based, human; conditions: cord blood CD36+ at day 6 (D6) of culture; 33 nM, 100 nM, 333 nM and 1000 nM; normal concentrations of EPO; until 20 h of treatment
Description: (§1) Umbilical cord blood units from normal full-term deliveries were obtained, after informed mother's consent, from the Obstetrics Unit of Hôpital Necker-Enfants Malades. CD36+ erythroid progenitors, generated from 7 days IL-6+IL3+SCF-cultured CD34 progenitors isolated from cord blood (Miltenyi CD34 Progenitor Cell Isolation Kit), were cultured in the presence of IL3+SCF+Epo in IMDM (Gibco cell culture) supplemented with 15% BIT 9500 (Stem Cell Technologies).

[2] = test system: CD36+ D6; experiment: Cell death of CD36+ D6 cells during EPO starvation; format: cell-based, human; conditions: EPO starvation during 20 h
Description: as §1

[3] = test system: HSP70; experiment: HSP70 nuclear retention in CD36+ D6 cells under EPO starvation; format: cell-based, human; conditions: CD36+ D6 from cord blood, after 20 h of treatment
Description: as §1
(§2) 5.10^4 cells were spin on slides, acetone fixated, hydrated with cold 1×PBS 1% BSA for 30 minutes, treated with formaldehyde for 15 min (Sigma), then with methanol (Prolabo) for 10 minutes at room temperature. Cells were then permeabilized with 1×PBS 0.2% triton X100 (Sigma) for 10 min at 4° C., washed and incubated in 10% BSA for 30 minutes. They were then sequentially incubated with antibodies diluted in 1×PBS 1% BSA 0.1% tween (Sigma). Nuclei were stained with DAPI and slides were examined with a confocal laser microscope (LSM 700 Carl Zeiss).

[4] = test system: HSP70; experiment: HSP70 nuclear localization in myelodysplastic syndrome CD36+ D8 cells; format: cell-based, human; conditions: 100 nM, after 72 h of treatment, compared to non treated cells
Description: as §2

[5] = test system: CD36+ D8 cells; experiment: Erythroid maturation of CD36+ D8 cells (MGG observations); format: cell-based, human; conditions: 100 nM, 333 nM and 1000 nM, after 72 h of treatment, compared to non treated cells
[6] = test system: HSP70; conditions: erythroid precursor cells; cited from earlier work

| SMILES | toxicity for CD36+ erythroid progenitors [1] | decrease of cell death compared to the absence of KPT treatment ([2]; 100 nM) | decrease of cell death compared to the absence of KPT treatment ([2]; 333 nM) | HSP70 nuclear retention [3] | HSP70 nuclear localization [4] | maturation index (mature*100/polychromatic) [5] | number of mature cells [5] | HSP70 nuclear retention [6] |
| --- | --- | --- | --- | --- | --- | --- | --- | --- |
| FC(F)(F)c1cc(-c2ncn(/C=C\c3nnco3)n2)cc(C(F)(F)F)c1 [KPT] | not toxic | 49% | 39% | induces HSP70 nuclear retention | induces HSP70 nuclear localization | increases | increases the number of mature cells | – |
| CCC(=C/[C@H](C)C/C=C/C(C)=C/[C@@H](C)C(=O)[C@@H](C)[C@H](O)[C@@H](C)C/C(C)=C/C(=O)O)/C=C/[C@@H]1OC(=O)C=C[C@@H]1C [Leptomycin B] | – | – | – | – | – | – | – | induces HSP70 nuclear retention |
